Experimental data as given in the NIST ThermoML archive (doi:10.1016/j.fluid.2013.10.034).
± gives the expanded uncertainty stated by the source.

Key:
[1] = refractive index (Na D-line) (dimensionless); conditions: 298.15 K; 101.33 kPa; Liquid; Standard Abbe refractometry
[2] = 298.15 K; 101.33 kPa; Liquid; Vibrating tube method

| refractive index [1] | mass density [2] [kg/m3] | SMILES |
| --- | --- | --- |
| 1.3836 ± 0.0005 | 799.62 ± 0.11 | CCCO [propan-1-ol] |
| 1.3754 ± 0.0005 | 782.7 ± 0.15 | CC(C)O [propan-2-ol] |
| 1.3325 ± 0.0005 | – | O [water] |

| SMILES | refractive index [1] | mass density [2] [kg/m3] |
| --- | --- | --- |
| CC(=O)CC(C)C [4-methylpentan-2-one] | 1.3936 ± 0.0005 | 795.94 ± 0.14 |
